Measurements published in ChEMBL document CHEMBL1201862, “PubChem BioAssay data set” (2004).
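Five concentrations, 48 hours, 96-well plates. GI50 is the concentration that inhibits growth by half.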 Active and inactive are the calls of the source. Cut-off read from the data, not from the text of the source: active = GI50 up to about 1.1 µM and inactive = higher.

Columns and labels:
Assay in all cases: DTP human tumour cell line panel, 48 h
NCI/ADR-RES = test system: NCI/ADR-RES
OVCAR-5 = test system: OVCAR-5
TK-10 = test system: TK-10
BT-549 = test system: BT-549
NCI-H23 = test system: NCI-H23
HCT-116 = test system: HCT-116
SF-539 = test system: SF-539
SK-OV-3 = test system: SK-OV-3
MDA-MB-231 = test system: MDA-MB-231
NCI-H522 = test system: NCI-H522
NCI-H226 = test system: NCI-H226
SNB-75 = test system: SNB-75
MOLT-4 = test system: MOLT-4
SW-620 = test system: SW-620
SK-MEL-5 = test system: SK-MEL-5
CCRF-CEM = test system: CCRF-CEM
Malme-3M = test system: Malme-3M
A549 = test system: A549
MCF7 = test system: MCF7
ACHN = test system: ACHN
EKVX = test system: EKVX
786-0 = test system: 786-0
NCI-H460 = test system: NCI-H460
SF-268 = test system: SF-268
RPMI-8226 = test system: RPMI-8226
HT-29 = test system: HT-29
DU-145 = test system: DU-145
HCC 2998 = test system: HCC 2998
SK-MEL-2 = test system: SK-MEL-2
SK-MEL-28 = test system: SK-MEL-28
Hs-578T = test system: Hs-578T
SF-295 = test system: SF-295
OVCAR-3 = test system: OVCAR-3
SNB-19 = test system: SNB-19
HOP-62 = test system: HOP-62
A498 = test system: A498
HL-60 = test system: HL-60
SN12C = test system: SN12C
OVCAR-4 = test system: OVCAR-4
UACC-62 = test system: UACC-62
T47D = test system: T47D
MDA-N = test system: MDA-N
UACC-257 = test system: UACC-257
HCT-15 = test system: HCT-15
U-251 = test system: U-251
UO-31 = test system: UO-31
CAKI-1 = test system: CAKI-1
MDA-MB-435 = test system: MDA-MB-435
COLO 205 = test system: COLO 205
PC-3 = test system: PC-3
KM12 = test system: KM12
M14 = test system: M14
SR = test system: SR
OVCAR-8 = test system: OVCAR-8
LOX IMVI = test system: LOX IMVI
IGROV-1 = test system: IGROV-1
HOP-92 = test system: HOP-92
K562 = test system: K562
RXF 393 = test system: RXF 393

Measured: GI50

COc1cc2c(cc1OC)C1=C(C=O)c3ccc(OC)c(OC)c3C(O)N1CC2 (stereo unspecified)
30.8 µM: HCT-15
inactive: NCI/ADR-RES 26.4 µM | OVCAR-5 31.7 µM | TK-10 20.9 µM | BT-549 22.2 µM | NCI-H23 24.8 µM | HCT-116 30.5 µM | SF-539 12.9 µM | SK-OV-3 65.8 µM | MDA-MB-231 16.3 µM | NCI-H522 25.1 µM | NCI-H226 66.5 µM | SNB-75 4.75 µM | MOLT-4 12.5 µM | SW-620 37.2 µM | SK-MEL-5 13.3 µM | CCRF-CEM 33.7 µM | Malme-3M 24.5 µM | A549 22.7 µM | MCF7 32.6 µM | ACHN 28.2 µM | EKVX 21.6 µM | 786-0 35.2 µM | NCI-H460 30.8 µM | SF-268 27.5 µM | RPMI-8226 7.53 µM | HT-29 21.4 µM | DU-145 28.1 µM | HCC 2998 13.2 µM | SK-MEL-2 13.8 µM | SK-MEL-28 31 µM | Hs-578T 23.9 µM | SF-295 24 µM | OVCAR-3 39 µM | SNB-19 26.2 µM | HOP-62 39.7 µM | A498 21.8 µM | HL-60 16.3 µM | SN12C 33.2 µM | OVCAR-4 40.3 µM | UACC-62 13.8 µM | T47D 21.1 µM | MDA-N 31.5 µM | UACC-257 18.5 µM | U-251 19.2 µM | UO-31 37.5 µM | CAKI-1 31.2 µM | MDA-MB-435 32.2 µM | COLO 205 20.7 µM | PC-3 17.5 µM | KM12 28.9 µM | M14 21.9 µM

NNC(=O)c1ccccc1Nc1nc(-c2cccs2)nc2ccc(Br)cc12
inactive: NCI/ADR-RES > 100 µM | OVCAR-5 > 100 µM | TK-10 > 100 µM | BT-549 84.1 µM | NCI-H23 > 100 µM | HCT-116 70 µM | SR > 100 µM | SF-539 > 100 µM | SK-OV-3 > 100 µM | MDA-MB-231 > 100 µM | NCI-H522 > 100 µM | NCI-H226 > 100 µM | OVCAR-8 55 µM | SNB-75 45.4 µM | MOLT-4 > 100 µM | SW-620 > 100 µM | SK-MEL-5 74 µM | CCRF-CEM > 100 µM | Malme-3M > 100 µM | A549 85.1 µM | MCF7 49.5 µM | ACHN > 100 µM | EKVX > 100 µM | 786-0 49.5 µM | NCI-H460 87.3 µM | SF-268 31.1 µM | RPMI-8226 > 100 µM | HT-29 78.5 µM | DU-145 > 100 µM | HCC 2998 90.4 µM | SK-MEL-2 > 100 µM | SK-MEL-28 45.5 µM | Hs-578T > 100 µM | SF-295 51.8 µM | OVCAR-3 25.9 µM | SNB-19 53.3 µM | HOP-62 > 100 µM | A498 > 100 µM | LOX IMVI 44.9 µM | HL-60 71.3 µM | SN12C 37.2 µM | OVCAR-4 6.7 µM | UACC-62 > 100 µM | T47D 47.8 µM | UACC-257 > 100 µM | U-251 23.2 µM | UO-31 > 100 µM | CAKI-1 74.3 µM | MDA-MB-435 77.4 µM | IGROV-1 > 100 µM | COLO 205 > 100 µM | PC-3 44.4 µM | KM12 67.5 µM | HOP-92 > 100 µM | M14 86.7 µM | K562 77.6 µM
14.7 µM: HCT-15

S=C1C=C(c2ccccc2)Sc2ccccc2N1
> 100 µM: HCT-15
inactive: NCI/ADR-RES > 100 µM | OVCAR-5 > 100 µM | TK-10 > 100 µM | BT-549 > 100 µM | NCI-H23 > 100 µM | HCT-116 79.8 µM | SR > 100 µM | RXF 393 8.95 µM | SK-OV-3 > 100 µM | MDA-MB-231 > 100 µM | NCI-H522 44.5 µM | NCI-H226 > 100 µM | OVCAR-8 > 100 µM | SNB-75 61.7 µM | MOLT-4 30.4 µM | SK-MEL-5 74.6 µM | CCRF-CEM 67.5 µM | Malme-3M > 100 µM | A549 > 100 µM | MCF7 > 100 µM | ACHN > 100 µM | EKVX > 100 µM | 786-0 > 100 µM | NCI-H460 > 100 µM | SF-268 > 100 µM | RPMI-8226 > 100 µM | HT-29 > 100 µM | DU-145 > 100 µM | SK-MEL-28 > 100 µM | Hs-578T 19.5 µM | SF-295 > 100 µM | OVCAR-3 > 100 µM | SNB-19 > 100 µM | HOP-62 41.4 µM | LOX IMVI > 100 µM | HL-60 53.8 µM | SN12C > 100 µM | OVCAR-4 > 100 µM | UACC-62 > 100 µM | T47D > 100 µM | MDA-N > 100 µM | UACC-257 48.6 µM | U-251 > 100 µM | UO-31 > 100 µM | CAKI-1 > 100 µM | IGROV-1 > 100 µM | COLO 205 > 100 µM | PC-3 > 100 µM | KM12 > 100 µM | M14 57.9 µM | K562 > 100 µM
